Assay results: US5366543A, “Alcohol-soluble dye and ink composition containing the same” (Orient Chemical Industries, Ltd., priority 1992, dated 1994)
Values belong to the compound of their own block, whether it stands above or below them.

Experiment: Solubility Comparing Test (saturation concentration of dye in alcohol type solvents)
Type: physicochemical
Conditions: for Solubility, Mixed solvent: Phenylene glycol:Benzyl alcohol:oleic acid = 4:1:1; for Solubility, Mixed solvent / Solubility, Ethylene glycol: dye added after heating the solvent to 70-80 C; for Solubility, Ethanol / Solubility, n-Propanol: saturation concentration by spotting on filter paper
Description: Solubility of disazo salt-forming dyes (dye 1-5) obtained in Examples 1-5 and dyes a-c into alcohol type organic […] was tested. While stirring each dye with a magnet stirrer, the dye was first added to 100 parts of solvent and it was spotted on the filter paper (Toyo filter paper No. 2) to investigate the saturation concentration. When ethylene glycol or mixed solvent was used for the solvent, dye was added after heating the solvent to 70-80 C.
Phenylene glycol:Benzyl alcohol:oleic acid = 4:1:1
2) Numbers in the Table indicate the solubility (wt %) into the respectiv

Solubility, Mixed solvent (listed as 3): 30 wt % | Solubility, Ethanol (listed as 3): 20 wt % | Solubility, n-Propanol (listed as 3): 10 wt %
SMILES: CCC(C)c1ccc(N=Nc2c(S(=O)(=O)O)cc3cc(Nc4ccc5c(O)c(N=Nc6ccc(C(C)CC)cc6)c(S(=O)(=O)O)cc5c4)ccc3c2O)cc1 (centres unmarked) [Dye 3]

Solubility, Mixed solvent: 30 wt % | Solubility, Ethanol (listed as a): 10 wt % | Solubility, Ethylene glycol: 30 wt % | Solubility, n-Propanol: 5 wt %
SMILES: O=S(=O)(O)c1cc2cc(Nc3ccc4c(O)c(N=Nc5ccccc5)c(S(=O)(=O)O)cc4c3)ccc2c(O)c1N=Nc1ccccc1 [Dye a]

Solubility, Ethanol (listed as b): 5 wt %
SMILES: O=S(=O)(O)c1cc2cc(Nc3ccc4c(O)c(N=Nc5ccccc5)c(S(=O)(=O)O)cc4c3)ccc2c(O)c1N=Nc1ccccc1 [Dye b, reference compound]

Solubility, Mixed solvent (listed as 1): 30 wt % | Solubility, Ethanol (listed as 1): 20 wt % | Solubility, Ethylene glycol: 30 wt % | Solubility, n-Propanol (listed as 1): 15 wt %
SMILES: CCC(C)c1ccc(N=Nc2c(S(=O)(=O)O)cc3cc(Nc4ccc5c(O)c(N=Nc6ccc(C(C)CC)cc6)c(S(=O)(=O)O)cc5c4)ccc3c2O)cc1 (centres unmarked) [Dye 1]

Solubility, Mixed solvent (listed as 2): 40 wt % | Solubility, Ethanol (listed as 2): 25 wt % | Solubility, Ethylene glycol: 30 wt % | Solubility, n-Propanol (listed as 2): 20 wt %
SMILES: CCC(C)c1ccc(N=Nc2c(S(=O)(=O)O)cc3cc(Nc4ccc5c(O)c(N=Nc6ccc(C(C)CC)cc6)c(S(=O)(=O)O)cc5c4)ccc3c2O)cc1 (centres unmarked) [Dye 2]

Solubility, Mixed solvent: 40 wt % | Solubility, Ethanol: 10 wt % | Solubility, Ethylene glycol: 30 wt % | Solubility, n-Propanol: 10 wt %
SMILES: COc1cc(N=Nc2ccccc2)c(C)cc1N=Nc1c(S(=O)(=O)O)cc2cc(S(=O)(=O)O)cc(N)c2c1O [Dye c, reference compound]
